The text below walks through data of ChEMBL document CHEMBL1139969, “Novel and potent 3-(2,3-dichlorophenyl)-4-(benzyl)-4H-1,2,4-triazole P2X7 antagonists” (Bioorg Med Chem Lett, 2007).

The target in data set [1] is T1, P2X purinoceptor 7 (Homo sapiens, UniProt Q99572).
T1 sequence (Q99572 whole entry): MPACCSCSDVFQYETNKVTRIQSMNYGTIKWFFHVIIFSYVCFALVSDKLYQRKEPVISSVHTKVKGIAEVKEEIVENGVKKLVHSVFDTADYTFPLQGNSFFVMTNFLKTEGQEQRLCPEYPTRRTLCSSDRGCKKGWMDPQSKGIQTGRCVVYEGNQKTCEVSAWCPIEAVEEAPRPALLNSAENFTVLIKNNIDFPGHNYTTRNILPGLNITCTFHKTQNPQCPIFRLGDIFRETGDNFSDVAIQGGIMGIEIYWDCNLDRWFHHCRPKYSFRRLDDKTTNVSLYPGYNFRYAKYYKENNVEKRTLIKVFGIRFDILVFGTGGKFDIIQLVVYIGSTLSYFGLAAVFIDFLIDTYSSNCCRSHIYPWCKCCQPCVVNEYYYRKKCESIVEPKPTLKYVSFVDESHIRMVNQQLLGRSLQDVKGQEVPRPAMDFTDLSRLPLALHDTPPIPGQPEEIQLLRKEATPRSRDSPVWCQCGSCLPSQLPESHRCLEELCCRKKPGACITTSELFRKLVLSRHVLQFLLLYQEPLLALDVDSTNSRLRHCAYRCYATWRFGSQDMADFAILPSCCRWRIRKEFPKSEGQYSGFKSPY
Description: Antagonist activity at human recombinant P2X7 receptor. In kind it is functional.

In data set [2] the test system is THP-1. Description: Inhibition of IL1-beta release from THP1 cells. The data set is classed as functional, cell-based. Particulars: Homo sapiens.
Data set [3] deals with T2, P2X purinoceptor 7 (Rattus norvegicus, UniProt Q64663).
T2 sequence (Q64663 whole entry): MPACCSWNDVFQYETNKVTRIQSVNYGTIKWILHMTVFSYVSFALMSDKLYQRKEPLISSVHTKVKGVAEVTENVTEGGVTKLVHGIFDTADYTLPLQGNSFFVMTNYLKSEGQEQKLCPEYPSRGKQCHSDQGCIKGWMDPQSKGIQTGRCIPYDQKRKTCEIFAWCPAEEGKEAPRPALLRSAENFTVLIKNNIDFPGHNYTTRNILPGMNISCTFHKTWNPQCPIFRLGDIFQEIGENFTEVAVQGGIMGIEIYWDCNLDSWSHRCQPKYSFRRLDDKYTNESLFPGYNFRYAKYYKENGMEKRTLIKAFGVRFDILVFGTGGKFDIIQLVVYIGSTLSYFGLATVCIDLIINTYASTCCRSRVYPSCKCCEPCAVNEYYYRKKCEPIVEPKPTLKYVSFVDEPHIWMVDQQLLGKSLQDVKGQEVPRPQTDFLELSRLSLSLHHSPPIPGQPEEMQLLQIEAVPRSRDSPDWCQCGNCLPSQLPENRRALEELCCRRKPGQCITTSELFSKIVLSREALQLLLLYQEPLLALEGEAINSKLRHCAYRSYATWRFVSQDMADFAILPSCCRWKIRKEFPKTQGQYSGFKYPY
As to the kind of experiment: Antagonist activity at rat recombinant P2X7 receptor. In kind it is functional.

For data set [4], the target named is P2Y purinoceptor 1 (Homo sapiens) (UniProt P47900). As to the kind of experiment: Activity at human P2Y1 receptor at 10 uM.
The nature of data set [5]: Bioavailability in ip dosed rat Chung model of neuropathic pain. The data set is classed as ADME, organism-based. The settings on record: in vivo.
A short description of data set [6]: Half life in ip dosed rat Chung model of neuropathic pain. In kind it is ADME, organism-based. Particulars: in vivo.
The nature of data set [7]: Clearance in rat at 5 umol/kg, iv. In kind it is ADME, organism-based. The settings on record: in vivo.
For data set [8], the species on record is Homo sapiens. As to the kind of experiment: Activity at human P2X2/3 receptor at 10 uM.
The nature of data set [9]: Volume of distribution at terminal phase in rat at 5 umol/kg, iv. In kind it is ADME, organism-based. Particulars: in vivo.
For data set [10], the target named is T3, P2X purinoceptor 4 (Homo sapiens) (UniProt Q99571).
T3 sequence (whole entry): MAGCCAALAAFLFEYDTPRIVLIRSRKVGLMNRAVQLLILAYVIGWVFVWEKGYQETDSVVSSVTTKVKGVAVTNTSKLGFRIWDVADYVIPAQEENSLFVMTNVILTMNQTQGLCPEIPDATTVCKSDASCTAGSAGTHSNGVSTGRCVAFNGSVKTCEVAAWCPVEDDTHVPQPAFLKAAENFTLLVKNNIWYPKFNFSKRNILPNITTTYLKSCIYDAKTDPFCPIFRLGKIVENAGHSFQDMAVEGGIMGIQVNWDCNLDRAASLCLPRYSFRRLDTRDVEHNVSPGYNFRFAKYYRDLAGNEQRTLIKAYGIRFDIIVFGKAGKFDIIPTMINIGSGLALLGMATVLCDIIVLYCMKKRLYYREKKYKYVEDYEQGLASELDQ
As to the kind of experiment: Activity at human P2X4 receptor at 10 uM.

Data set [11] addresses T4, P2X purinoceptor 2 (Homo sapiens) (UniProt Q9UBL9).
T4 sequence (whole entry): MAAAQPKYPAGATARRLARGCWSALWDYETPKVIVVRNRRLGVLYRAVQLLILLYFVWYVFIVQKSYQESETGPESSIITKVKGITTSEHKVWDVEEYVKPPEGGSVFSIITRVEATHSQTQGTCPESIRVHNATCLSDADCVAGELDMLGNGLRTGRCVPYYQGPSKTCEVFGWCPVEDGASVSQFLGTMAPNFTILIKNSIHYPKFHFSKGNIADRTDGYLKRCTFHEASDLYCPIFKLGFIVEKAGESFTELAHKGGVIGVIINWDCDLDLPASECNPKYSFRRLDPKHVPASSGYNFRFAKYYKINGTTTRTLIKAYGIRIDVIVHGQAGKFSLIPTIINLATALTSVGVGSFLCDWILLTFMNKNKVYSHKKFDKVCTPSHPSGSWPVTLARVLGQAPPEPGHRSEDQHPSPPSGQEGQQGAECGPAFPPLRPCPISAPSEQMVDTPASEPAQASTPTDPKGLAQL
Description: Antagonist activity at human P2X2 receptor at 10 uM. In kind it is functional.

Data set [12] addresses P2Y purinoceptor 2 (Homo sapiens) (UniProt P41231). Description: Activity at human P2Y2 receptor at 10 uM.
Data set [13] addresses T5, P2X purinoceptor 1 (Homo sapiens) (UniProt P51575).
T5 sequence (whole entry): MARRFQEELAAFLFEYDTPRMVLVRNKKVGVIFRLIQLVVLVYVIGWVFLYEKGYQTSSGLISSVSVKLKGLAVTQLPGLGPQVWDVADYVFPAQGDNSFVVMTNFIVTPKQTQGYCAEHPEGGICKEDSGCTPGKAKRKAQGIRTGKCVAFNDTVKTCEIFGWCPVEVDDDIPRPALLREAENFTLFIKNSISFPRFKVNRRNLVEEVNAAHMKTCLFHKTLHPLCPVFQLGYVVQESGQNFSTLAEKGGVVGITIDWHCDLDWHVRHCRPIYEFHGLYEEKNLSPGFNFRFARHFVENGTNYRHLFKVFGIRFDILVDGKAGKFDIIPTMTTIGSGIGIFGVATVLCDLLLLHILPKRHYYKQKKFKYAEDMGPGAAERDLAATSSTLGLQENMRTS
As to the kind of experiment: Activity at human P2X1 receptor at 10 uM.

Data set [14] can be described thus: Tmax in rat at 5 umol/kg, ip. The data set is classed as ADME, organism-based. Particulars: in vivo.
For data set [15], the species on record is Rattus norvegicus. Description: Antinociceptive activity in rat Chung model of neuropathic pain assessed as reversal of allodynia after 30 mins. The data set is classed as functional.
Data set [16] deals with Translocator protein (Homo sapiens) (UniProt P30536). As to the kind of experiment: Activity at peripheral benzodiazepine receptor at 10 uM.
Data set [17] is described as follows: Oral bioavailability in rat at 5 umol/kg. In kind it is ADME, organism-based. Particulars: in vivo.
A short description of data set [18]: Cmax in rat at 5 umol/kg, ip. In kind it is ADME, organism-based. More on the design: dose 5 umol/kg, route intraperitoneal. The settings on record: in vivo.

The source made the active and inactive calls. The calls are words filed in the database; no cut-off is given here.

Chain of P2Y purinoceptor 1 (Homo sapiens) (P47900 whole entry): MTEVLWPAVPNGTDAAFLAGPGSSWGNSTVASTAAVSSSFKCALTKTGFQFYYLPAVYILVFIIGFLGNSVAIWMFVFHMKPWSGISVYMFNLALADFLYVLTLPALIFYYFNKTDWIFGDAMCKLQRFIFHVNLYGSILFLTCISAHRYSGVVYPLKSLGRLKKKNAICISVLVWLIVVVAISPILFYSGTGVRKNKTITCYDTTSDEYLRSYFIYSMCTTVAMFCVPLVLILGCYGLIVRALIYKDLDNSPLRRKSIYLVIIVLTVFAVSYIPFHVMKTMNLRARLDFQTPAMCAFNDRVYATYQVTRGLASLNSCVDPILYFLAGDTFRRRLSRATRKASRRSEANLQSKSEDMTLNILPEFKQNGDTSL
Chain of Translocator protein (Homo sapiens) (P30536 whole entry): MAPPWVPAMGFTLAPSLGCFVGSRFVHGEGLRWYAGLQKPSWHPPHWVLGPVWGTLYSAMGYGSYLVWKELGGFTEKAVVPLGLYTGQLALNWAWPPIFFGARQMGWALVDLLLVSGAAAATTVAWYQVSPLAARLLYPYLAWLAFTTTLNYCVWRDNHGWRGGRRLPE
Chain of P2Y purinoceptor 2 (Homo sapiens) (P41231 whole entry): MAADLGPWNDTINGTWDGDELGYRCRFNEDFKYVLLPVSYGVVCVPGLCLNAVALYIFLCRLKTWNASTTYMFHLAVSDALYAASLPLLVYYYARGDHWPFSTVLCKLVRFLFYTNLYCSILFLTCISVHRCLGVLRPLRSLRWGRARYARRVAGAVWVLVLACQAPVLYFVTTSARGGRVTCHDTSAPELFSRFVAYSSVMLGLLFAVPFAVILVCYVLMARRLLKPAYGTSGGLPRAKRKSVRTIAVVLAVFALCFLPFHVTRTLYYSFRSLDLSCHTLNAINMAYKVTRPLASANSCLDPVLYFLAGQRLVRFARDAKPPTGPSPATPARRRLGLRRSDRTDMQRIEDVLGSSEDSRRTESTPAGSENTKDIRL

As a reminder, the IC50 is the concentration needed to halve the response being measured. In the case of `Clc1cccc(-c2nncn2Cc2ccccc2)c1Cl`, the IC50 in data set [1] is 525 nM.
As to `Clc1cccc(-c2nncn2[C@@H]2CCc3ccccc32)c1Cl`, the half-inhibitory concentration (IC50) was 75.9 nM in data set [2], 77.6 nM in data set [3] and 19.1 nM in data set [1].
`FC(F)(F)c1ccc(Cn2cnnc2-c2cccc(Cl)c2Cl)cc1`: in data set [1], the IC50 is 8910 nM.
With `CSc1ccccc1Cn1cnnc1-c1cccc(C(F)(F)F)c1Cl`, the IC50 in [1] is 26.9 nM.
With `FC(F)(F)c1ccccc1Cn1cnnc1-c1cccc(Cl)c1Cl`, the IC50 in data set [1] is 132 nM.
Still for that read-out and setting: as for `Clc1cccc(-n2ncnc2Cc2ccccc2)c1Cl`, the figure is 209 nM; as for `CS(=O)(=O)c1ccccc1Cn1cnnc1-c1cccc(C(F)(F)F)c1Cl`, 145 nM.
Regarding `FC(F)c1ccccc1Cn1cnnc1-c1cccc(Cl)c1Cl`, in [1], the IC50 is 117 nM.
Take `Clc1cccc(-c2cncn2Cc2ccccc2)c1Cl`: the IC50 in [1] was 1820 nM.
On to `Fc1ccc(C(F)(F)F)c(Cn2cnnc2-c2cccc(Cl)c2Cl)c1`, for which the IC50 in data set [1] was 49 nM.
The same measure, in the same setting: the value for `Clc1cccc(-n2nncc2Cc2ccccc2)c1Cl` was 427 nM.
For `Clc1cccc(-c2nnnn2Cc2ccccc2)c1Cl`, the values for the half-inhibitory concentration (IC50) in data set [2] and in [3] were 2510 nM and 75.9 nM, respectively.
Take `COc1cccc(Cn2cnnc2-c2cccc(Cl)c2Cl)c1`: the IC50 in data set [1] was 214 nM.
With `Clc1cccc(-c2ccnn2Cc2ccccc2)c1Cl`, the IC50 in data set [1] is 6030 nM.
`Clc1cccc(-c2cnnn2Cc2ccccc2)c1Cl`: in data set [1], the half-maximal inhibitory concentration (IC50) is 603 nM.
Still for that read-out and setting: the value for `Fc1ccc(C(F)(F)F)cc1Cn1cnnc1-c1cccc(Cl)c1Cl` was 912 nM.
As to `COc1cccc(Cn2cnnc2-c2cccc(Cl)c2Cl)c1OC`, the IC50 in [1] was 132 nM.
The same measure, in the same setting: as for `CSc1ccccc1Cn1cnnc1-c1cccc(Cl)c1Cl`, the figure is 49 nM.
The same measure, in the same setting: the value for `Clc1cccc(-c2nncn2[C@H]2CCc3ccccc32)c1Cl` was 50.1 nM; that for `Clc1cccc(-c2ncnn2Cc2ccccc2)c1Cl` was 302 nM.
In the case of `Clc1cccc(-c2nncn2Cc2cccc3ccccc23)c1Cl`, the IC50 in [1] was 58.9 nM.
Turning to `Cc1ccc(F)cc1Cn1cnnc1-c1cccc(Cl)c1Cl`, the results for the IC50 in data set [2], in [3] and in data set [1] were 240 nM, 550 nM and 47.9 nM, respectively.
As for `Clc1cccc(Cn2cnnc2-c2cccc(Cl)c2Cl)c1Cl`, the 50% inhibitory concentration (IC50) in [1] is 191 nM.
For the compound `Clc1ccc(Cl)c(Cn2cnnc2-c2cccc(Cl)c2Cl)c1`, in [1], the IC50 was 138 nM.
A word on the bioavailability: it is dose-corrected exposure relative to a reference, in per cent. Read a low bioavailability as poor availability. Broadly, the half-life is the time in which the quantity being followed falls by half. What is called clearance is the rate of elimination divided by the concentration. Low readings indicate inefficient removal, high ones efficient removal. One may read the Vd as a proportionality between amount in the body and measured concentration, not a real space. Lower therefore signals little distribution into tissue. By Tmax is commonly meant the time at which the peak concentration occurs. For orientation: ED50 means the midpoint of the dose-response relation. As usually defined, the Cmax is the highest concentration seen after dosing. `Cc1ccccc1Cn1cnnc1-c1cccc(Cl)c1Cl`: the result in [4], in data set [8], in data set [10], in data set [11], in data set [12] and in data set [13] was inactive. Also, the bioavailability in [5] is 62%; in [17], 15%. The compound further gave a half-life in data set [6] of 1.7 h. The clearance in [7] was 51.7 mL/min/kg. The compound further had a Vd in [9] of 1.9 L/kg. In data set [14], the Tmax was 0.33 h. Also, the IC50 in [2] was 372 nM; in data set [3], 209 nM; in [1] it was 77.6 nM. Further, the Efficacy in data set [15] is 68%. The ED50 in [15] (Rattus norvegicus, 0.5 h) was found to be 125 µmol/kg. The compound further came in with an Activity in [16] of 86%. The concentration in data set [18] peaked (Cmax) at 210 ng/mL.
For the compound `CC(c1ccccc1)n1cnnc1-c1cccc(Cl)c1Cl` (stereo not given), in [1], the half-inhibitory concentration (IC50) is 1050 nM.
Still for that read-out and setting: the value for `COc1ccccc1Cn1cnnc1-c1cccc(Cl)c1Cl` was 191 nM.
Consider `FC(F)(F)c1cccc(Cn2cnnc2-c2cccc(Cl)c2Cl)c1`, for which, in [1], the IC50 is 1290 nM.
As to `O=C(NCC12CC3CC(CC(C3)C1)C2)c1cccc(Cl)c1Cl`, the results for the IC50 in [3] and in data set [1] were 813 nM and 64.6 nM, respectively.
With `CC(C)(c1ccccc1)n1cnnc1-c1cccc(Cl)c1Cl`, the IC50 in [1] is 13200 nM.
For `Clc1ccc(Cn2cnnc2-c2cccc(Cl)c2Cl)c(Cl)c1`, the IC50 in [1] is 331 nM.
